Here are results for 3 compounds from patent US20190211099A1, “METHODS AND COMPOSITIONS FOR TREATING CANCER WITH SIGLEC-9 ACTIVITY MODULATORS” (KING'S COLLEGE LONDON, priority 2016, published 2019).

Holding throughout (format): cell-based, human
Experiment [1] relates to monocytes from PBMCs. As to the kind of experiment: MUC1-ST mediated TAM formation in monocytes from PBMCs, 7 day serum-free culture. The settings on record: PD98059 at 10 μM. The protocol:
To further explore the role of MUC1-ST in inducing a TAM-like phenotype, monocytes from PBMCs were plated in serum-free medium, incubated with MUC1-ST or PBS, and cultured for 7 days.
Intracellular calcium flux can lead to activation of the MEK/ERK pathway (Christo et al. (2015) IMMUNOL. AND CELL BIOLOGY 93: 694-704). […] Furthermore, treatment with the MEK inhibitor PD98059 at 10 μM inhibited MUC1-ST mediated TAM formation in monocytes (FIGS. 12B, 12D-12E).

The subject of experiment [2] is allogeneic CD8+ T cells. Kind of experiment: Co-culture of MUC1-ST treated macrophages with allogeneic CD8+ T cells. The settings on record: MEK signalling inhibited in the macrophages (FIG. 13K). The protocol:
Thereafter, the effects of MUC1-ST educated macrophages on T cell function were analyzed. Macrophages treated with MUC1-ST were co-cultured with eFluor® 670 labelled allogeneic CD8+ T cells in the presence of absence of anti-Siglec-9 antibody or isotype control. Indeed, macrophages that had been educated with MUC1-ST were decreased in their ability to stimulate the proliferation of allogeneic CD8 T cells (FIG. 11E). […] (FIG. 11F). This profile of expression and functional activity is indicative of tumor-associated macrophages (TAMs), which play a role in promoting tumor progression (Noy et al. (2014) IMMUNITY 41: 49-61; Sousa et al. (2015) BREAST CANCER RES. 17: 101; Qian et al. (2010) CELL 141: 39-45).

Experiment [3] concerns MUC1-ST educated monocytes and macrophages. As to the kind of experiment: Secretion of PAI-1 and M-CSF from MUC1-ST educated monocytes and macrophages with PD98059 or verapamil. The protocol: ELISAs for IL-6, IL-12p70, TGF-β1, PAI-1, M-CSF, EGF, SHP2, phospho-SHP2 (Biotechne) were all carried out as per manufacturer's instructions.
To explore this, the secretion of PAI-1 and M-CSF from MUC1-ST educated monocytes and macrophages was measured following treatments with 1 μM PD98059 or 20 μM verapamil for 20 minutes at 37° C., where indicated.

The subject of experiment [4] is THP-1 cells. Kind of experiment: PAI-1, M-CSF and kynurenine in supernatants of differentiated THP-1 cells. The settings on record: THP-1; PD98059. The protocol: THP-1 cells were cultured at a concentration of 1×10^6/mL in AIM V medium. Cells were differentiated using […] phorbol 12-myristate 13-acetate (PMA) on day 0 and 100 ng/mL LPS on day 3 in the presence or absence of 100 μg/mL MUC1-ST or MUC1-T. Cell supernatants were harvested on day 5 and PAI-I concentration measured by ELISA.
Given that IDO catalyzes the rate-limiting step in the metabolism of tryptophan, the tryptophan metabolite kynurenine was detected as follows. 604, supernatant was mixed with 304, 30% trichloroacetic acid (TCA) and incubated for 30 minutes at 50° C. The supernatant was spun at 3000×g and 50 μL was harvested and mixed with 50 μL freshly prepared Ehrlich Reagent (2% p-dimethylaminobenzaldehyde in glacial acetic acid). After 10 minutes optical density (O.D.) was measured at 492 nm, and concentrations were calculated against a kynurenine standard curve. An increase in the tryptophan metabolite kynurenine was observed (FIG. 11D).
The intracellular effects of MUC1-ST binding to Siglec-9 were further explored in the monocytic cell line, THP-1. THP-1 cells were cultured for three days at a concentration of 1×10^6/mL in AIM V medium and differentiated using […] phorbol 12-myristate 13-acetate (PMA) in the presence or absence of 100 μg/mL MUC1-ST. […] THP-1 cells were further treated with DMSO or the MEK/ERK inhibitor PD98059 at 1004, and the concentration of PAI-1, M-CSF and kynurenine in cell supernatants were measured as described above. […] This increase in concentration was blocked by the MEK/ERK inhibitor PD98059 (FIG. 4I).

The subject of experiment [5] is CD8+ T cells. Kind of experiment: Co-culture of MUC1-ST educated M-CSF macrophages with CD3/CD28 stimulated autologous T cells. The settings on record: antibody present. The protocol: In addition, primary monocytes were induced to differentiate to macrophages in the presence of MUC1-ST and then co-cultured for 48 hours with CD3/CD28 stimulated autologous CD8+ or CD4+ T cells. T cell proliferation and CD69/CD25 cell surface expression were measured using flow cytometry.

For experiment [6], the system named is monocyte derived dendritic cells. Kind of experiment: Differentiation of monocytes into dendritic cells. The settings on record: 10 μg/10^6 cells anti-Siglec-9 before MUC1-ST; 10 μg/ml anti-IL-6Rα every 2 days. The protocol: To differentiate monocytes into macrophages, CD14+ cells were plated at a concentration of 1×10^6/mL in AIM V medium (Lonza) with either 50 ng/mL recombinant human M-CSF or 50 ng/mL recombinant human GM-CSF (Bio-Techne). The cytokines were added every 3 days. The cells were incubated at 37° C., 5% CO2 for 7 days to fully differentiate, before being characterized as macrophages via phenotypic flow cytometric analysis. To differentiate monocytes into dendritic cells (moDC), CD14+ cells were plated at a concentration of 1×10^6/mL in AIM V medium with 1500 U/mL recombinant human IL-4 (Bio-Techne) and 400 U/mL human GM-CSF (Bio-Techne) for 6 days to fully differentiate, before being characterized as immature DCs via phenotypic flow cytometric analysis (Epics XL, Beckman Coulter or FACSCalibur, BD Biosciences plus WinMDI or Cellquest software). MoDCs were matured using 1 μg/mL LPS for 24 hours.
In addition, the effects of MUC1-ST on the differentiation of monocytes into dendritic cells were assessed. Briefly, monocytes were treated with MUC1-ST on day 0 and differentiated into immature dendritic cells (DCs) using IL-4 (1500 U/mL) and GM-CSF (400 U/mL) in AIM-V media for 6 days. Immature DCs were matured using 1 μg/mL LPS for 24 hours. […]

In experiment [7] the test system is M-CSF macrophages differentiated with LPS and IFNγ. As to the kind of experiment: Differentiation of monocytes into M(LPS+IFNγ) macrophages: CD86 and IL-12. As to conditions: blocking antibodies. The protocol:
Both the cell phenotype staining and neutralization studies described in the Examples were performed using the following antibodies (all anti-human): Siglec-9 (Biotechne; 191240), Siglec-9 FITC (Biotechne; 191240), Siglec-3 (Biotechne; 6C5/2), Siglec-7 (Biotechne; AF1138), Siglec-3 FITC (BD; P67.6), Siglec-7 PE (Biolegend; 6-434), Siglec-10 PE (Biolegend; 5G6), Siglec-1 (abcam; 7D2), HLA-DR FITC (Beckman Coulter; IM0463U), CD16 FITC (Biolegend; B73.1), CD14 FITC (BD 555397), CD69 PE (Beckman Coulter; IM1943), CD25 FITC (ABX228FITC), CD86 PE (Beckman Coulter; IM2729U), CD40 FITC (BD 555588), CD83 PE (Beckman Coulter; IM2218), CD163 PE (Biolegend; GHI/61), CXCR1 FITC (BD Pharmongen; 551126), CD45 PC5 (Beckman Coulter; IM2653U), CD206 PE (ebioscience; 19.2), PD-L1 PE (Biolegend; 29E.2A3), CD36 (Santa Cruz; H-300), TGFbetaRII (Bio-Techne; AF-241), IL-6Rα (Tocilizumab; Roche. A generous gift from Dr. Valerie Corrigall). […] At least 1×10^4 events were evaluated using either Epics XL, (Beckman Coulter) or FACSCalibur (BD Biosciences) flow cytometers. […]
Given that IL-6 and NO are known differentiation modulators (Oosterhoff et al. (2012) ONCOIMMUNOLOGY 1: 649-658; Bogdan (2015) TREND IMMUNOL. 36: 161-178) the effects of MUC1-ST on the differentiation of monocytes into macrophages was assessed. […]

The mark [8] stands for this setting: 1 μM PD98059, 20 minutes at 37° C.
Where [9] appears, read: 20 μM verapamil, 20 minutes at 37° C.

As to `COc1cccc(-c2cc(=O)c3ccccc3o2)c1N` [PD98059, reference compound], the “MUC1-ST mediated TAM formation in monocytes” value in experiment [1] was “inhibited”. Besides, the “repression of T cell proliferation by MUC1-ST treated macrophages” value in experiment [2] is listed as “could be overcome”. Also, in experiment [3] (setting [8]), the “secretion of M-CSF” value is “significantly inhibited” and the “secretion of PAI-1” value is on record as “significantly inhibited”. In addition, the “MUC1-ST induced increase in PAI-1, kynurenine and M-CSF concentration” value in experiment [4] is “blocked”.

In the case of `COc1ccc(CCN(C)CCCC(C#N)(c2ccc(OC)c(OC)c2)C(C)C)cc1OC` (stereo not shown) [verapamil], in experiment [3] (setting [9]), the “secretion of M-CSF” value is on record as “significantly inhibited” and the “secretion of PAI-1” value is given as “significantly inhibited”.

Consider “Tocilizumab [anti-IL-6Rα, reference compound]”, for which, in experiment [5], the “reversal of the inhibition of CD8+ T cell activation” value is listed as “could be reversed”. Also, the “reversal of the effect of MUC1-ST on differentiation of dendritic cells” value in experiment [6] was “significantly reverse”. Further, the “rescue of MUC1-ST induced lowering of CD86 and IL-12” value in experiment [7] is “partially rescued”.
